# Laboratory results published in ChEMBL document CHEMBL1127135, “Synthesis and biological properties of 3-[()-2-(1,2,3-Thiadiazolyl)ethenyl]-substituted cephalosporins and related compounds: new oral cephalosporins” (Bioorg Med Chem Lett, 1993).
# Experiments:
# [1] = Evaluated for pharmacokinetic parameter area under curve in mouse at the dose 20 mg/kg (0-4 hr); type: ADME, organism-based; parameters: time < 4 hr, dose 20 mg/kg; details: in vivo
# [2] = Evaluated for pharmacokinetic parameter half-life in rat at the dose 50 mg/kg; type: ADME, organism-based; parameters: dose 50 mg/kg; details: in vivo
# [3] = Evaluated for pharmacokinetic parameter tmax in rabbit at the dose 20 mg/kg; type: ADME, organism-based, Oryctolagus cuniculus; parameters: dose 20 mg/kg; details: in vivo
# [4] = Evaluated for pharmacokinetic parameter half-life in mouse at the dose 20 mg/kg; type: ADME, organism-based; parameters: dose 20 mg/kg; details: in vivo
# [5] = Evaluated for pharmacokinetic parameter area under curve in rabbit at the dose 20 mg/kg ( 0-4 hr ); type: ADME, organism-based, Oryctolagus cuniculus; parameters: time < 4 hr, dose 20 mg/kg; details: in vivo
# [6] = Evaluated for pharmacokinetic parameter Cmax in rabbit at the dose 20 mg/kg; type: ADME, organism-based, Oryctolagus cuniculus; parameters: dose 20 mg/kg; details: in vivo
# [7] = Evaluated for pharmacokinetic parameter area under curve in rat at the dose 50 mg/kg ( 0-8 hr ); type: ADME, organism-based; parameters: time < 8 hr, dose 50 mg/kg; details: in vivo
# [8] = Evaluated for pharmacokinetic parameter urine recovery in rabbit at the dose 20 mg/kg ( 0-24 hr ); type: ADME, organism-based, Oryctolagus cuniculus; parameters: dose 20 mg/kg; details: read-out: UR
# [9] = Evaluated for pharmacokinetic parameter Cmax in rat at the dose 50 mg/kg; type: ADME, organism-based; parameters: dose 50 mg/kg; details: in vivo
# [10] = Evaluated for pharmacokinetic parameter Cmax in mouse at the dose 20 mg/kg; type: ADME, organism-based; parameters: dose 20 mg/kg; details: in vivo
# [11] = Evaluated for pharmacokinetic parameter tmax in rat at the dose 50 mg/kg; type: ADME, organism-based; parameters: dose 50 mg/kg; details: in vivo
# [12] = Evaluated for pharmacokinetic parameter tmax in mouse at the dose 20 mg/kg; type: ADME, organism-based; parameters: dose 20 mg/kg; details: in vivo
# [13] = Evaluated for pharmacokinetic parameter half-life in rabbit at the dose 20 mg/kg; type: ADME, organism-based, Oryctolagus cuniculus; parameters: dose 20 mg/kg; details: in vivo
# [14] = Evaluated for pharmacokinetic parameter urine recovery in mouse at the dose 20 mg/kg ( 0-24 hr ); type: ADME, organism-based; parameters: dose 20 mg/kg; details: read-out: UR
# [15] = Evaluated for pharmacokinetic parameter urine recovery in rat at the dose 50 mg/kg ( 0-24 hr ); type: ADME, organism-based; parameters: dose 50 mg/kg; details: read-out: UR
# Enterococcus hirae = assay: Antibacterial activity against Enterococcus hirae ATCC 8043 was determined; type: functional
# Serratia marcescens = assay: Antibacterial activity against Serratia marcescens IID 618 was determined; type: functional
# Klebsiella pneumoniae [16] = assay: Antibacterial activity against Klebsiella pneumoniae IFO 3317 was determined; type: functional
# Providencia rettgeri = assay: Antibacterial activity against Providencia rettgeri IFO3850 was determined; type: functional
# Escherichia coli [17] = assay: Antibacterial activity against Escherichia coli NIHJ JC-2 was determined; type: functional
# Escherichia coli [18] = assay: Antibacterial activity against Escherichia coli ATCC 25922 was determined; type: functional
# Morganella morganii [19] = assay: Antibacterial activity against Morganella morganii IID 602 was determined; type: functional
# Proteus mirabilis = assay: Antibacterial activity against Proteus mirabilis IFO3849 was determined; type: functional
# Staphylococcus aureus [20] = assay: Antibacterial activity against Staphylococcus aureus 209P-JC was determined; type: functional
# [21] = tested on: Staphylococcus epidermidis; assay: Antibacterial activity against Staphylococcus epidermidis IID 866 was determined; type: functional
# Micrococcus luteus [22] = assay: Antibacterial activity against Micrococcus luteus ATCC 9341 was determined; type: functional
# Moraxella catarrhalis [23] = assay: Antibacterial activity against M(B). catarrhalis ATCC 25238 was determined; type: functional
# Proteus vulgaris = assay: Antibacterial activity against Proteus vulgaris HX-19 was determined; type: functional
# Klebsiella aerogenes = assay: Antibacterial activity against Enterobacter aerogenes IFO 13048 was determined; type: functional
# Staphylococcus aureus [24] = assay: Antibacterial activity against Staphylococcus aureus ATCC 25923 was determined; type: functional
# Pseudomonas aeruginosa = assay: Antibacterial activity against Pseudomonas aeruginosa NCTC 10490 was determined; type: functional
# Staphylococcus aureus [25] = assay: Antibacterial activity against Staphylococcus aureus Smith was determined; type: functional
# Enterobacter cloacae = assay: Antibacterial activity against Enterobacter cloacae 963 was determined; type: functional
# Moraxella catarrhalis [26] = assay: Antibacterial activity against M(B). catarrhalis AtCC 25238 was determined; type: functional
# [27] = Evaluated for pharmacokinetic parameter area under curve in rabbit at the dose 20 mg/kg (0-4 hr ); type: ADME, organism-based, Oryctolagus cuniculus; parameters: time < 4 hr, dose 20 mg/kg; details: in vivo
# [28] = Evaluated for pharmacokinetic parameter urine recovery in rabbit at the dose 20 mg/kg (0-24 hr); type: ADME, organism-based, Oryctolagus cuniculus; parameters: dose 20 mg/kg; details: read-out: UR
# [29] = Evaluated for pharmacokinetic parameter urine recovery in rat at the dose 50 mg/kg (0-24 hr); type: ADME, organism-based; parameters: dose 50 mg/kg; details: read-out: UR
# Morganella morganii [30] = assay: Antibacterial activity against Morganella morganii IID 602; type: functional
# Haemophilus influenzae = assay: Antibacterial activity against Haemophilus influenzae ATCC 19418 was determined; type: functional
# [31] = Evaluated for pharmacokinetic parameter area under curve in mouse at the dose 20 mg/kg (0-4 hr ); type: ADME, organism-based; parameters: time < 4 hr, dose 20 mg/kg; details: in vivo
# [32] = Evaluated for pharmacokinetic parameter area under curve in rat at the dose 50 mg/kg (0-8 hr ); type: ADME, organism-based; parameters: time < 8 hr, dose 50 mg/kg; details: in vivo
# Streptococcus pneumoniae = assay: Antibacterial activity against Streptococcus pneumoniae IID 553 was determined; type: functional
# [33] = Evaluated for pharmacokinetic parameter urine recovery in mouse at the dose 20 mg/kg (0-24 hr); type: ADME, organism-based; parameters: dose 20 mg/kg; details: read-out: UR
# [34] = Evaluated for pharmacokinetic parameter tmax in mouse at the dose 20 mg/kg was determined; type: ADME, organism-based; parameters: dose 20 mg/kg; details: in vivo
# Micrococcus luteus [35] = assay: Antibacterial activity against Micrococcus […] determined; type: functional
# [36] = Evaluated for pharmacokinetic parameter area under curve in rat at the dose 50 mg/kg (0-8 hr); type: ADME, organism-based; parameters: time < 8 hr, dose 50 mg/kg; details: in vivo
# Klebsiella pneumoniae [37] = assay: Antibacterial activity against Klebsiella pneumoniae IFO 331 was determined; type: functional
Compound,half-life [2] [h],Tmax [3] [h],MIC (Enterococcus hirae) [µg/mL],MIC (Serratia marcescens) [µg/mL],MIC (Klebsiella pneumoniae [16]) [µg/mL],MIC (Providencia rettgeri) [µg/mL],MIC (Escherichia coli [17]) [µg/mL],MIC (Escherichia coli [18]) [µg/mL],MIC (Morganella morganii [19]) [µg/mL],MIC (Proteus mirabilis) [µg/mL],MIC (Staphylococcus aureus [20]) [µg/mL],MIC [21] [µg/mL],MIC (Micrococcus luteus [22]) [µg/mL],MIC (Moraxella catarrhalis [23]) [µg/mL],MIC (Proteus vulgaris) [µg/mL],MIC (Klebsiella aerogenes) [µg/mL],MIC (Staphylococcus aureus [24]) [µg/mL],MIC (Pseudomonas aeruginosa) [µg/mL],MIC (Staphylococcus aureus [25]) [µg/mL],MIC (Enterobacter cloacae) [µg/mL],other results
CC(C)(C)C(=O)OCOC(=O)C1=C(/C=C\c2csnn2)CSC2C(NC(=O)/C(=N\O)c3csc(N)n3)C(=O)N12 (centres undefined),1.8,1,,,,,,,,,,,,,,,,,,,AUC at 4 h [1]: 62000 ng·h/mL; half-life [4]: 2.7 h; AUC at 4 h [5]: 10500 ng·h/mL; Cmax [6]: 2400 ng/mL; AUC at 8 h [7]: 37900 ng·h/mL; dose excreted [8]: 17.2%; Cmax [9]: 15200 ng/mL; Cmax [10]: 20500 ng/mL; Tmax [11]: 1 h; Tmax [12]: 0.5 h; half-life [13]: 2.3 h; dose excreted [14]: 42.8%; dose excreted [15]: 9.5%
Cc1nnsc1/C=C\C1=C(C(=O)O)N2C(=O)C(NC(=O)/C(=N\O)c3csc(N)n3)C2SC1 (centres undefined),,,25,0.78,0.05,≤ 0.006,0.1,0.2,0.05,0.1,0.2,0.2,,,,,,,,,
Cc1snnc1/C=C\C1=C(C(=O)O)N2C(=O)C(NC(=O)/C(=N\O)c3csc(N)n3)C2SC1 (centres undefined),,,25,0.78,0.025,≤ 0.006,0.39,0.2,0.05,0.39,0.2,0.39,0.025,0.05,0.05,0.78,0.39,> 100,0.2,0.39,
CO/N=C(\C(=O)NC1C(=O)N2C(C(=O)O)=C(/C=C\c3csnn3)CSC12)c1csc(N)n1 (centres undefined),,,100,0.39,0.012,≤ 0.006,0.39,0.39,0.1,0.1,0.78,0.2,0.05,,≤ 0.006,0.78,0.78,50,0.39,0.39,MIC (Moraxella catarrhalis [26]): 0.025 µg/mL
Nc1nc(/C(=N/O)C(=O)NC2C(=O)N3C(C(=O)O)=C(/C=C\c4csnn4)CSC23)cs1 (centres undefined),4.4,2,12.5,0.39,0.012,≤ 0.006,0.1,0.1,,0.05,0.1,0.05,0.012,0.05,0.05,0.2,0.39,> 100,0.1,0.2,AUC at 4 h [27]: 9700 ng·h/mL; half-life [4]: 0.7 h; Cmax [6]: 2000 ng/mL; dose excreted [28]: 17.4%; Cmax [9]: 6000 ng/mL; dose excreted [29]: 3.5%; Cmax [10]: 1500 ng/mL; Tmax [11]: 2 h; MIC (Morganella morganii [30]): 0.025 µg/mL; MIC (Haemophilus influenzae): 0.05 µg/mL; AUC at 4 h [31]: 4700 ng·h/mL; AUC at 8 h [32]: 19800 ng·h/mL; MIC (Streptococcus pneumoniae): 0.05 µg/mL; half-life [13]: 2.2 h; dose excreted [33]: 1.9%; Tmax [34]: 2 h
CO/N=C(\C(=O)NC1C(=O)N2C(C(=O)O)=C(/C=C\c3scnc3C)CSC12)c1csc(N)n1 (centres undefined),,,> 100,0.39,0.025,0.025,0.39,0.39,0.2,0.39,0.78,0.39,0.025,≤ 0.006,≤ 0.006,0.78,0.78,12.5,0.78,0.78,
C=CC1=C(C(=O)O)N2C(=O)[C@@H](NC(=O)/C(=N\O)c3csc(N)n3)[C@H]2SC1 [CEFDINIR],1.5,1,100,1.56,,≤ 0.006,0.39,0.39,6.25,0.2,0.39,0.1,,0.2,0.39,1.56,0.39,> 100,0.2,0.78,AUC at 4 h [1]: 10000 ng·h/mL; AUC at 4 h [27]: 64200 ng·h/mL; half-life [4]: 0.6 h; MIC (Micrococcus luteus [35]): 0.05 µg/mL; Cmax [6]: 5800 ng/mL; AUC at 8 h [36]: 13200 ng·h/mL; dose excreted [8]: 64.2%; Cmax [9]: 6000 ng/mL; Cmax [10]: 2500 ng/mL; Tmax [11]: 2 h; MIC (Haemophilus influenzae): 0.39 µg/mL; Tmax [12]: 1 h; MIC (Streptococcus pneumoniae): 0.1 µg/mL; half-life [13]: 1.9 h; MIC (Klebsiella pneumoniae [37]): 0.1 µg/mL; dose excreted [14]: 10%; dose excreted [15]: 13.2%
